Laboratory results taken from a melting point compilation (Tetko et al.; mined from patent text by program, amines drawn as free bases though some values may be those of a salt).

Row | melting point | SMILES
1 | 155 to 156 °C | Cn1c2cc(C(F)(F)F)ccc2c2oc(C(=O)Cl)cc21
2 | 69 °C | Cc1nc(COc2cccc(Cl)c2C)no1
3 | 68 to 70 °C | Cc1ccc(Nc2nnc(Cc3ccncc3)c(C)c2C)cc1
4 | 229 to 232 °C | C[C@@H]1CN2C(=O)c3ccccc3[C@@](O)(c3ccc(F)cc3)C2=N1
5 | 241 to 242 °C | O=C(O)c1cc2ccccc2c(=O)o1
6 | 95 to 95.5 °C | O=[N+]([O-])c1ccc(NCCc2ccccc2)c(S(=O)(=O)CCO)c1
7 | 199 to 201 °C | CN(C(=O)CCS(C)(=O)=O)c1nnc(-c2cccnc2)s1
8 | 231 to 233 °C | CC(C)(C)c1cc(Nc2cccc(-c3nnn[nH]3)c2)cc(C(C)(C)C)c1O
9 | 174 to 175 °C | O=Cc1c[nH]c2ccc(Nc3ncnc4cc(-c5ccccc5)sc34)cc12
10 | 247 to 248 °C | CCn1cc(C(=O)O)c(=O)c2cnc(N3CCN(c4ccccc4)CC3)nc21
11 | 230 °C | Cn1cncc1C(O)(c1ccc(C=NO)cc1)c1ccc2[nH]c(=O)cc(-c3cccc(Cl)c3)c2c1 (stereo unspecified)
12 | 174 to 175 °C | N#Cc1cnc2c(sc3ccccc32)c1Oc1ccc(Cl)cc1F
13 | 141 to 143 °C | CN(C)CC1CCc2cc(NC(=O)c3ccc(Br)cc3)ccc2C1 (stereo unspecified)
14 | 147 to 149 °C | O=C1NC(=C2CCC2)Sc2ccccc21
15 | 202 °C | O=C1c2cccc([N+](=O)[O-])c2C(=O)N1c1ccc(O)cc1
16 | 56 °C | COC(=O)C(I)C(O)c1ccccc1 (stereo unspecified)
17 | 179 to 182 °C | Cc1cc(N)cc(C)c1Oc1ccc(O)c(Cc2ccc(F)cc2)c1
18 | 151 to 152 °C | O=C1Nc2ccccc2N(C(=O)CCCCl)c2ccccc21
19 | 114 to 117 °C | Fc1cccc(OC2CN(C3CCC(c4c[nH]c5ccccc45)CC3)C2)c1 (stereo unspecified)
20 | 156 to 160 °C | OC(Cn1ccnc1)c1ccc2ccccc2c1 (stereo unspecified)
21 | 62 to 63 °C | CCC(C)n1c2ccccc2c2ccccc21 (stereo unspecified)
22 | 270 °C | O=C(Oc1ccccc1)OC1c2nccnc2C(=O)N1c1ccc2ccc(Cl)nc2n1 (stereo unspecified)
23 | 170 °C | COC(=O)[C@H](CC1=CCC(N)(O)C=C1)NC(=O)c1ccccc1 (stereo partly specified)
24 | 148 to 152 °C | CCCCc1nc(Cl)c(C(=O)O)n1Cc1ccc2oc(-c3ccccc3C(=O)O)c(Br)c2c1
25 | 196 to 210 °C | O=C(O)Cc1ccc(-c2ccc(-c3ccccc3)cc2)o1
26 | 161 to 162 °C | CSc1nnc2n1C=Cc1cc(C)ccc1C2

Row | melting point | SMILES
27 | 143 to 145 °C | Cc1ccc(C(N)=S)c2ccccc12
28 | 196 to 198 °C | COc1ccc(C2=NNC(=O)CC2c2ccc(OC)c(F)c2)cc1F (stereo unspecified)
29 | 209 to 212 °C | COc1cccc2c(O)c(C(=O)NCCCCN3CCN(C(c4ccccc4)c4ccccc4)CC3)cnc12
30 | 65.5 °C | Cc1ccc([N+](=O)[O-])cc1C=Cc1ccccc1
31 | 189 to 190 °C | NC(=O)c1cccc(-c2cccc3sc(Cc4ccc(F)c(F)c4)cc23)c1
32 | 117 to 122 °C | CC(Cc1c[nH]c2ccccc12)(NC(=O)OC1C2CC3CC(C2)CC1C3)C(=O)NCC(CCC(=O)O)c1ccccc1 (stereo unspecified)
33 | 125 °C | Cc1cccc(-c2n[nH]cc2-c2ccc(F)c(-c3ccc(S(N)(=O)=O)s3)c2)n1
34 | 138 to 140 °C | CCOC(=O)c1cc(-c2ccccc2)nc2c([N+](=O)[O-])cccc12
35 | 163 to 164 °C | COc1ccc(C(=O)Cc2ccc(Br)cc2)c(Cl)c1Cl
36 | 250 to 252 °C | O=C(O)c1sc(-c2ccc(C(F)(F)F)cc2)nc1CO
37 | 75 to 77 °C | CC(C)(C)OC(=O)CN1C(=O)[C@@H](NC(=O)OC(C)(C)C)CC(=O)c2ccccc21
38 | 172 to 174 °C | CCCCc1oc2ccccc2c1-c1ncc(-c2ccc3c(Br)c(O)ccc3c2)o1
39 | 168 to 169 °C | C(=C\c1nc2ccccc2n1-c1ccncc1)/c1ccccc1
40 | 193 to 194 °C | O=C(c1ccc2nonc2c1)N1Cc2cccnc2Nc2ccccc21
41 | 164 to 166 °C | COc1cc(C(=O)c2cn(C)c(-c3cn(C)c4ccccc34)n2)cc(OC)c1OC
42 | 190 to 191 °C | Cc1oc(-c2ccccc2)nc1Cc1cc2cc(CC3OC(=O)NC3=O)ccc2o1 (stereo unspecified)
43 | 122 to 126 °C | CC(C)(C)OC(=O)NCCCc1ccccc1C=CC(=O)O
44 | 161 to 162 °C | COc1cc(Nc2nccc(-c3ccc(OCCCN)cc3)n2)cc(OC)c1OC
45 | 164 to 166 °C | CCCCc1c2c(nn1CCC)c(N)nc1ccccc12
46 | 109 to 111 °C | CC1(C)OC(=O)C(=CSCc2cccs2)C(=O)O1
47 | 220 to 223 °C | O=C(c1ccccc1)c1ccc(Nc2ncnc3ccc(-n4ccnc4)cc23)cc1Cl
48 | 257 °C | NC(=S)Cc1cccc(-c2nc(=O)c3ccccc3s2)n1
49 | 253 to 254 °C | NC(=O)CN1C(=O)OCc2cc(Br)ccc21
50 | 224 to 225 °C | CS(=O)(=O)CC(=O)c1[nH]c2cc(Br)c(Cl)cc2c1-c1ccccc1
51 | > 250 °C | O=C(O)c1[nH]c2cc(Cl)cc(Cl)c2c1C=C1NC(=O)N(c2ccccc2)C1=O

Further lines, the compound ahead of its results:

Row | SMILES | melting point
52 | CC(=O)NC[C@H]1CN(c2cc(F)c(N3CCN(CCO)CC3)c(F)c2)C(=O)O1 | 172 to 174 °C
53 | COC(=O)C(NS(=O)(=O)c1ccc(-c2ccc(NC(=O)c3oc4cccc(C(C)=O)c4c3C)cc2)cc1)C(C)C (stereo unspecified) | 197 to 199 °C
54 | CCc1cc(C)cc(CC)c1CO | 71 to 72 °C
55 | Cc1cc(C)c2cccc(OCc3c(C)ccc(S(=O)(=O)N4CCC[C@H]4C(=O)NCCCNC(=O)c4ccc(C=NN)cc4)c3C)c2n1 | 150 °C
56 | CC(C)(C)C(=O)C(Br)Oc1ccc(Cl)cc1Cl (stereo unspecified) | 70 °C
57 | COC(=O)c1c(C(C)C)nc(C(C)C)c(CN2CCC(N3CCCCC3)CC2)c1-c1ccc(F)cc1 | 59 to 61 °C
58 | Cc1nn(CC(O)c2ccc(Cl)cc2)c(=O)n1-c1ccc(N2CCN(c3ncc(O)cn3)CC2)cc1 (stereo unspecified) | 244 °C
59 | CCCN(CCC)Cc1coc(-c2ncn3c2CN(C)C(=O)c2ccccc2-3)n1 | 109 to 110 °C
60 | O=c1[nH]c2cc(F)c(NCC3CCCCO3)cc2o1 (stereo unspecified) | 185 to 186 °C
61 | CCC(=O)N(c1ccc(C#N)cc1)c1c(NC(C)C(C)(C)C)c(=O)c1=O (stereo unspecified) | 211 to 214 °C
62 | CCN(CC)CC(=C1NCCCS1)[N+](=O)[O-] | 68 to 69 °C
63 | CCCCCCCCCCCCCCCCNc1ccc(COC(C)=O)cc1 | 43 to 45 °C
64 | CCC(CC)c1[nH]c(C)c(C(C)=O)c1C | 186 to 189 °C
65 | Cc1ccc(C#N)c(NC(C)C)c1 | 55 to 57 °C
66 | O=C(O)CCC(=O)c1ccc(NC(=O)C2(Cl)CC2)cc1 | 178 to 179 °C
67 | COc1cc(OCC(=O)N(C)C)c(/C=C/C(=O)c2ccc(C(=O)O)cc2)cc1-c1cccs1 | 197 to 198 °C
68 | CCN(C)c1cccc(NC(=O)COC(C)=O)c1C#N | 57 to 58 °C
69 | O=C1CC2CCC(=O)N2c2cc(O)cc(O)c21 (stereo unspecified) | 254 to 256 °C
70 | C=CCn1cc(C(=O)OCC)c(=O)c2cc(F)c(Cl)cc21 | 162 to 164 °C
71 | CCCCn1c(=O)c2[nH]cnc2n(CCCC)c1=O | 166 to 169 °C
72 | Clc1c(Cl)c(Cl)c(CI)c(Cl)c1Cl | 138 to 140 °C
73 | O=C(O)CCC(=O)C(=O)N1CCCC1 | 101 to 102 °C
74 | CNC(=O)CC1CN=C(c2cc3cc(Oc4ccc(S(C)(=O)=O)nc4)cc(OC(COC)COC)c3[nH]2)S1 (stereo unspecified) | 149 to 151 °C
75 | O=c1c2cc(I)ccc2nc(Cl)n1-c1ccc(Cl)cc1 | 178 to 180 °C
76 | O=C1C2C[C@H](O)CN2C(=O)N1c1ccc([N+](=O)[O-])c2ccccc12 (stereo partly specified) | 246 to 248 °C

Row | SMILES | melting point
77 | Cc1c(C)c2c(c(C)c1NCc1ccc(Cl)cc1)C(c1ccc(C(C)C)cc1)C(C)(C)O2 (stereo unspecified) | 93 to 94 °C
78 | COCCOCc1c(CN(C)C[C@@H](O)c2ccco2)sc2c(=O)c(C(=O)NCc3ccc(Cl)cc3)cn(C)c12 | 146 to 147 °C
79 | Cc1csc2nc(C(=O)O)cn12 | 196 to 197 °C
80 | CS(=O)(=O)c1ccc(Oc2c(-c3ccc(S(C)(=O)=O)cc3)cnn(CC(F)(F)F)c2=O)cc1 | 212 to 213 °C
81 | CN1CCC[C@H]1c1cnc(Cl)cc1C(O)(c1ccc(C(C)(C)C)cc1)c1ccc(C(C)(C)C)cc1 | 226 to 230 °C
82 | CCOC(=O)CCCCOc1ccc([N+](=O)[O-])c(C=C2NC(=O)NC2=O)c1 | 127 to 129 °C
83 | NC1CCC(CCN2CCN(c3ccccc3)CC2)CC1 (stereo unspecified) | 65 to 70 °C
84 | COc1cc(OC)c2c(c1)OC(C(C)(C)C(N)=O)CC2=O (stereo unspecified) | 161 to 163 °C
85 | COc1ccc(C2=NC(C)(C)CO2)cc1N | 108 to 110 °C
86 | CCOP(OCC)c1ccccc1P(c1cccc2ccccc12)c1cccc2ccccc12 | 94 to 95 °C
87 | Cc1ccc(CCCO)c(NCc2ccc3nc(NCCCN4CCOCC4)n(Cc4cccc5cccnc45)c3c2)c1 | 165 °C
88 | NS(=O)(=O)c1ccc(-n2nc(C(F)(F)F)cc2-c2ccc([N+](=O)[O-])cc2)cc1 | 173 to 175 °C
89 | COC(=O)c1nc(Cl)c(Cl)c(Cl)c1N | 151 to 152 °C
90 | COc1cc(-c2nc(C)no2)cc2oc(=O)c(C)c(C)c12 | 172 to 174 °C
91 | COc1ccc2sc(C3=C(C(C)(C)C)C(C)(C)CO3)cc2c1 | 58 to 59 °C
92 | CCn1nnnc1SCc1c(S(C)(=O)=O)ccc(C(=O)OC)c1Cl | 109 to 110 °C
93 | CCCCCC(=O)OCC(CCn1cnc2c(=O)[nH]c(N)nc21)COC(=O)CCCCC | 198 °C
94 | CCOC(=O)C(=O)Nc1ccccc1Cn1cc(C(=O)OC)c2ccccc21 | 174 to 177 °C
95 | O=c1c2c(cc3n1CCCS3)CCCC2 | 123 to 124 °C
96 | O=C(NC(Cc1ccc(OCc2ccc(Cl)cc2)cc1)C(=O)O)c1cc2ccc(-c3ccc(Cl)cc3)cc2o1 (stereo unspecified) | 195 °C
97 | CCC(=O)NCCC1CCc2cc(Br)c3c(c21)CCCO3 (stereo unspecified) | 114 to 116 °C
98 | CC1(C)CC1(N)C(=O)OCC(CO)OCn1cnc2c(=O)[nH]c(N)nc21 (stereo unspecified) | > 300 °C
99 | O=C(OC1CCCCC1)c1cncn1C(c1ccccc1)c1ccccn1 (stereo unspecified) | 161 °C
100 | CC1CCN(c2c(-c3ccc(F)cc3Cl)c(C#N)nc3ncnn23)CC1 | 247 °C
101 | NS(=O)(=O)c1cc2c(s1)S(=O)CC(=O)N2 (stereo unspecified) | 222 to 223 °C
